Columns and labels:
[1] = Liver microsomes stability, rat; format: in vitro ADME; conditions: for half-life at 2 μM / microsomal CLint at 2 μM / CLint scaled at 2 μM: male; for CLint scaled at 2 μM: read-out: Scaled-up CLint
Procedure: (§1) The objective of this study was to estimate in vitro metabolic stability of exemplary compounds of Formula (I) or a pharmaceutically acceptable salt, solvate, and/or prodrug thereof in pooled human, male rat, and male mouse liver microsomes. The concentrations of compounds in reaction systems were evaluated by LC-MS/MS for estimating the stability in pooled human, male rat, and male mouse liver microsomes. The in vitro intrinsic clearances of test compounds were determined as well.
(§2) A master solution in the “Incubation Plate” containing phosphate buffer, ultra-pure H2O, MgCl2 solution and liver microsomes was made according to Table 33. The mixture was pre-warmed at 37° C. water bath for 5 minutes.
(§3) 40 μL of 10 mM nicotinamide adenine dinucleotide phosphate (NADPH) solution was added to each well. The final concentration of NADPH was 1 mM. The negative control samples were prepared by replacing NADPH with 40 μL of ultra-pure H2O. Samples were prepared in duplicate. Negative controls were prepared in singlet.
(§4) The reaction was started with the addition of 4 μL of 200 μM exemplary test compounds of the disclosure or control compounds to each master solution to get the final concentration of 2 μM. This study was performed in duplicate.
(§5) Aliquots of 50 μL were taken from the reaction solution at 0, 15, 30, 45, and 60 minutes. The reaction solutions were stopped by the addition of 4 volumes of cold methanol with IS (100 nM alprazolam, 200 nM imipramine, 200 nM labetalol, and 2 μM ketoprofen). Samples were centrifuged at 3,220 g for 40 minutes. Aliquot of 90 μL of the supernatant was mixed with 90 μL of ultra-pure H2O and then was used for LC-MS/MS analysis.
(§6) LC/MS analysis was performed for all samples from this study using a Shimadzu liquid chromatograph separation system equipped with degasser DGU-20A5R; solvent delivery unit LC-30AD; system controller SIL-30AC; column oven CTO-30A; CTC Analytics HTC PAL System. Mass spectrometric analysis was performed using a Triple Quad™ 5500 instrument.
(§7) All calculations were carried out using Microsoft Excel. Peak area ratios of test compound to internal standard (listed in the below table) were determined from extracted ion chromatograms.
(§8) All calculations were carried out using Microsoft Excel. Peak areas were determined from extracted ion chromatograms. The slope value, k, was determined by linear regression of the natural logarithm of the remaining percentage of the parent drug vs. incubation time curve.
(§9) The in vitro half-life (in vitro t1/2) was determined from the slope value:
(§10) Conversion of the in vitro t1/2 (min) into the in vitro intrinsic clearance (in vitro CLint, in μL/min/mg proteins) was done using the following equation (mean of duplicate determinations): […]
as §1, with “solvate” for “solvate,”, “rat” for “rat,”
(§11) A master solution in the “Incubation Plate” containing phosphate buffer, ultra-pure H2O, MgCl2 solution and liver microsomes was made according to Table 67. The mixture was pre-warmed at 37° C. water bath for 5 minutes.
(§12) 40 μL of 10 mM NADPH solution was added to each well. The final concentration of NADPH was 1 mM. The negative control samples were prepared by replacing NADPH with 40 μL of ultra-pure H2O. Samples were prepared in duplicate. Negative controls were prepared in singlet
(§13) Aliquots of 50 μL were taken from the reaction solution at 0, 15, 30, 45 and 60 minutes. The reaction solutions were stopped by the addition of 4 volumes of cold methanol with IS (100 nM alprazolam, 200 nM imipramine, 200 nM labetalol and 2 μM ketoprofen). […]

[2] = Liver microsomes stability, mouse; format: in vitro ADME; conditions: for half-life at 2 μM / microsomal CLint at 2 μM / CLint scaled at 2 μM: male; for CLint scaled at 2 μM: read-out: Scaled-up CLint
Procedure: as §1, §2, §3, §4, §5, §6, §7, §8, §9, §10
as §1, with “solvate” for “solvate,”, “rat” for “rat,”
as §11, §12, §13

[3] = Plasma protein binding by equilibrium dialysis, rat; conditions: for recovery at 6 h, 1 µM / fraction unbound at 6 h, 1 μM: rat; for fraction unbound at 6 h, 1 μM: plasma
Procedure: 1. The Frozen Plasma (Stored at −80° C.) was Thawed Immediately in a 37° C. Water Bath.
(§14) The working solution of test compounds and control compound was prepared in DMSO at the concentration of 200 μM, and then the working solution was spiked into plasma. The final concentration of compound was 1 μM. The final concentration of DMSO was 0.5%. Ketoconazole was used as positive control in the assay.
The dialysis membranes were soaked in ultrapure water for 60 minutes to separate strips, then in 20% ethanol for 20 minutes, finally in dialysis buffer for 20 minutes.
The dialysis set up was assembled according to the manufacturer's instruction. Each Cell was with 150 μL of plasma sample and dialyzed against equal volume of dialysis buffer (PBS). The assay was performed in duplicate. The dialysis plate was sealed and incubated in an incubator at 37° C. with 5% CO2 at 100 rpm for 6 hours. At the end of incubation, 50 μL of samples from both buffer and plasma chambers were transferred to wells of a 96-well plate.
50 μL of plasma was added to each buffer samples and an equal volume of PBS was supplemented to the collected plasma sample. 400 μL of precipitation buffer acetonitrile containing internal standards (IS, 200 nM labetalol, 100 nM tolbutamide and 100 nM ketoprofen) was added to precipitate protein and release compounds. Samples were vortexed for 2 minutes and centrifuged for 30 minutes at 3,220 g. Aliquot of 50 μL of the supernatant was diluted by 150 μL acetonitrile containing internal standards: ultra-pure H2O=1:1, and the mixture was used for LC-MS/MS analysis.
All calculations were carried out using Microsoft Excel. The concentrations of test compounds in the buffer and plasma chambers were determined from peak area ratios. The percentages of bound compound were calculated as follows: […]
as §14, with “[…].” for “μM.”

[4] = rat liver microsomes, 2 μM compound, 0.5 mg/mL microsomes
[5] = rat liver microsomes, With Cofactors, 0 min
[6] = rat liver microsomes, With Cofactors, 30 min
[7] = rat liver microsomes, With Cofactors, 60 min
[8] = rat liver microsomes, Without Cofactors, 0 min
[9] = rat liver microsomes, Without Cofactors, 30 min
[10] = rat liver microsomes, Without Cofactors, 60 min
[11] = pooled liver microsomes, mouse liver microsomes, 2 μM compound, 0.5 mg/mL microsomes
[12] = mouse liver microsomes, With Cofactors, 0 min
[13] = mouse liver microsomes, With Cofactors, 30 min
[14] = mouse liver microsomes, With Cofactors, 60 min
[15] = mouse liver microsomes, Without Cofactors, 0 min
[16] = mouse liver microsomes, Without Cofactors, 30 min
[17] = mouse liver microsomes, Without Cofactors, 60 min
[18] = Rat liver microsomes, 2 μM, 0.5 mg/mL, NADPH

[2H]C([2H])(c1c[nH]c2ccc(OCCCCCN3C(=O)C4CCCCC4C3=O)cc12)[C@H]1CCCN1C([2H])([2H])[2H] (mixture of isomers) [Rac (R) I-248]
half-life at 2 μM [1, 4]: < 4.51 min | microsomal CLint at 2 μM [1, 4]: > 307 µL/min/mg | CLint scaled at 2 μM ([1]; rat liver microsomes): > 550 mL/min/kg | Predicted hepatic CL ([1]; rat liver microsomes): >50.17 mL/min/kg | Remaining Percentage [1, 5]: 100.00% | Remaining Percentage [1, 6]: 0.95% | Remaining Percentage [1, 7]: 0.19% | Remaining Percentage [1, 8]: 100.00% | Remaining Percentage [1, 9]: 94.04% | Remaining Percentage [1, 10]: 94.04% | half-life at 2 μM [2, 11]: < 4.51 min | microsomal CLint at 2 μM [2, 11]: > 307 µL/min/mg | CLint scaled at 2 μM ([2]; mouse liver microsomes): > 1340 mL/min/kg | Predicted hepatic CL ([2]; mouse liver microsomes): >84.35 mL/min/kg | Remaining Percentage [2, 12]: 100.00% | Remaining Percentage [2, 13]: 0.15% | Remaining Percentage [2, 14]: 0.19% | Remaining Percentage [2, 15]: 100.00% | Remaining Percentage [2, 16]: 99.54% | Remaining Percentage [2, 17]: 95.85%

CSc1ccc2[nH]cc(C[C@H]3CCCN3C)c2c1 [(R) I-1, (R)-3-((1-Methylpyrrolidin-2-yl)methyl)-5-(methylthio)-1H-indole]
Predicted hepatic CL ([1]; Rat liver microsomes): 44.80 mL/min/kg | Remaining Percentage (%) 0 min ([1]; Rat liver microsomes, With Cofactors, 0 min): 100.00% | Remaining Percentage (%) 30 min ([1]; Rat liver microsomes, With Cofactors, 30 min): 13.67% | Remaining Percentage (%) 60 min ([1]; Rat liver microsomes, With Cofactors, 60 min): 0.44% | Remaining Percentage (%) 0 min ([1]; Rat liver microsomes, Without Cofactors, 0 min): 100.00% | Remaining Percentage (%) 30 min ([1]; Rat liver microsomes, Without Cofactors, 30 min): 93.44% | Remaining Percentage (%) 60 min ([1]; Rat liver microsomes, Without Cofactors, 60 min): 95.17% | half-life at 2 μM [1, 18]: 10.4 min | microsomal CLint at 2 μM [1, 18]: 133 µL/min/mg | CLint scaled at 2 μM ([1]; Rat liver microsomes): 238 mL/min/kg | Predicted hepatic CL ([2]; Mouse liver microsomes): >84.35 mL/min/kg | half-life at 2 μM ([2]; Mouse liver microsomes, 2 μM, 0.5 mg/mL, NADPH, <4.51 if % remaining at 30 min below 1%): < 4.51 min | microsomal CLint at 2 μM ([2]; Mouse liver microsomes, 2 μM, 0.5 mg/mL, NADPH, >307.01 if % remaining at 30 min below 1%): > 307 µL/min/mg | CLint scaled at 2 μM ([2]; mouse liver microsomes): > 1340 mL/min/kg | Remaining Percentage (%) 0 min [2, 12]: 100.00% | Remaining Percentage (%) 30 min [2, 13]: 0.15% | Remaining Percentage (%) 60 min [2, 14]: 0.23% | Remaining Percentage (%) 0 min [2, 15]: 100.00% | Remaining Percentage (%) 30 min [2, 16]: 98.55% | Remaining Percentage (%) 60 min [2, 17]: 103.02% | % Remaining @ 6 hours ([3]; Rat plasma, 1 μM, 37° C.): 105.76% | recovery at 6 h, 1 µM ([3]; SD): 103% | fraction unbound at 6 h, 1 μM ([3]; Sprague-Dawley): 0.534

COCCN1CCC[C@@H]1Cc1c[nH]c2ccc(OC)cc12 [(R) I-98, (R)-5-Methoxy-3-((1-(2-methoxyethyl)pyrrolidin-2-yl)methyl)-1H-indole]
half-life at 2 μM [1, 4]: 10 min | microsomal CLint at 2 μM [1, 4]: 138 µL/min/mg | CLint scaled at 2 μM ([1]; rat liver microsomes): 248 mL/min/kg | Predicted hepatic CL ([1]; rat liver microsomes): 45.13 mL/min/kg | Remaining Percentage [1, 6]: 100.00% | Remaining Percentage [1, 7]: 14.43% | Remaining Percentage [1, 9]: 100.00% | Remaining Percentage [1, 10]: 103.23% | half-life at 2 μM [2, 11]: 14.4 min | microsomal CLint at 2 μM [2, 11]: 96.3 µL/min/mg | CLint scaled at 2 μM ([2]; mouse liver microsomes): 421 mL/min/kg | Predicted hepatic CL ([2]; mouse liver microsomes): 74.16 mL/min/kg | Remaining Percentage [2, 13]: 100.00% | Remaining Percentage [2, 14]: 14.54% | Remaining Percentage [2, 16]: 100.00% | Remaining Percentage [2, 17]: 100.99% | fraction unbound at 6 h, 1 μM ([3]; SD): 0.569 | recovery at 6 h, 1 µM ([3]; Sprague-Dawley (SD)): 88% | % Remaining @ 6 hours ([3]; rat plasma): 96.55%

[2H]C([2H])(c1c[nH]c2ccc(OCCCCN3C(=O)c4ccccc4C3=O)cc12)[C@H]1CCCN1C([2H])([2H])[2H] [(R) I-244, (R)-2-(4-((3-((1-(Methyl-d3)pyrrolidin-2-yl)methyl-d2)-1H-indol-5-yl)oxy)butyl)isoindoline-1,3-dione]
half-life at 2 μM [1, 4]: 6.89 min | microsomal CLint at 2 μM [1, 4]: 201 µL/min/mg | CLint scaled at 2 μM ([1]; rat liver microsomes): 360 mL/min/kg | Predicted hepatic CL ([1]; rat liver microsomes): 47.87 mL/min/kg | Remaining Percentage [1, 5]: 100.00% | Remaining Percentage [1, 6]: 4.90% | Remaining Percentage [1, 7]: 0.57% | Remaining Percentage [1, 8]: 100.00% | Remaining Percentage [1, 9]: 94.87% | Remaining Percentage [1, 10]: 87.40% | half-life at 2 μM [2, 11]: < 4.51 min | microsomal CLint at 2 μM [2, 11]: > 307 µL/min/mg | CLint scaled at 2 μM ([2]; mouse liver microsomes): > 1340 mL/min/kg | Predicted hepatic CL ([2]; mouse liver microsomes): >84.35 mL/min/kg | Remaining Percentage [2, 12]: 100.00% | Remaining Percentage [2, 13]: 0.00% | Remaining Percentage [2, 14]: 0.00% | Remaining Percentage [2, 15]: 100.00% | Remaining Percentage [2, 16]: 98.38% | Remaining Percentage [2, 17]: 86.59% | fraction unbound at 6 h, 1 μM ([3]; SD): 0.19 | recovery at 6 h, 1 µM ([3]; Sprague-Dawley (SD)): 86.5% | % Remaining @ 6 hours ([3]; rat plasma): 85.45%

[2H]C([2H])(c1c[nH]c2ccc(OCCCCCN3C(=O)c4ccccc4C3=O)cc12)[C@H]1CCCN1C([2H])([2H])[2H] [(R) I-245, (R)-2-(5-((3-((1-(Methyl-d3)pyrrolidin-2-yl)methyl-d2)-1H-indol-5-yl)oxy)pentyl)isoindoline-1,3-dione]
half-life at 2 μM [1, 4]: < 4.51 min | microsomal CLint at 2 μM [1, 4]: > 307 µL/min/mg | CLint scaled at 2 μM ([1]; rat liver microsomes): > 550 mL/min/kg | Predicted hepatic CL ([1]; rat liver microsomes): >50.17 mL/min/kg | Remaining Percentage [1, 5]: 100.00% | Remaining Percentage [1, 6]: 0.62% | Remaining Percentage [1, 7]: 0.00% | Remaining Percentage [1, 8]: 100.00% | Remaining Percentage [1, 9]: 95.83% | Remaining Percentage [1, 10]: 94.10% | half-life at 2 μM [2, 11]: 5.12 min | microsomal CLint at 2 μM [2, 11]: 271 µL/min/mg | CLint scaled at 2 μM ([2]; mouse liver microsomes): 1180 mL/min/kg | Predicted hepatic CL ([2]; mouse liver microsomes): 83.65 mL/min/kg | Remaining Percentage [2, 12]: 100.00% | Remaining Percentage [2, 13]: 1.72% | Remaining Percentage [2, 14]: 0.25% | Remaining Percentage [2, 15]: 100.00% | Remaining Percentage [2, 16]: 100.00% | Remaining Percentage [2, 17]: 93.17%

— patent publication US12606543B2, “Indole derivatives as serotonergic agents useful for the treatment of disorders related thereto” (priority 2023, dated 2026)
